Experimental data taken from US12521450B2, “DNA, expression vector, transcript, cell, pharmaceutical composition, and medicine” (Hitachi, Ltd., priority 2021, dated 2026).

Tested on: SF3B1 K700E mutant cell derived from the HEK293FT cells
Test: GCV-concentration-dependent cell death, MTT assay, lentiviral HSV-TK (BRD9 intron) in genome-edited cells
Type: cell-based
Conditions: SF3B1 K700E mutant cell (one allele) vs SF3B1 normal cell; GCV 100 to 0.16 μg/mL, 48 hours; FIG. 7
Protocol: In this example, in order to verify the toxicity of a suicide gene in a cell having an SF3B1 K700E mutation in one allele in a genome, as in actual cancer cells, HEK293FT cells were genome-edited and an SF3B1 K700E mutant cell strain was established.
Meanwhile, an HSV-TK expression lentiviral vector containing the BRD9 intron was prepared using the pHR vector shown in SEQ ID NO: 11 (FIGS. 3A and 3B). The lentiviral vector was introduced into the SF3B1 K700E mutant strain and an SF3B1 normal strain as a control, and the number of cells killed by the addition of GCV was quantified using the MTT assay method. A detailed procedure will be shown below. […]
The solubilized solution of the MTT cell number measuring kit (Nacalai Tesque Inc.) was added into the HEK293FT cells at 100 μL/well, and the mixture was incubated at 37° C. After 20 hours, the absorbance at 570 nm (reference wavelength: 655 nm) was measured with the microplate reader.
The number of viable cells was calculated based on a standard curve using the above-mentioned serially diluted HEK293FT cells, and the viability was shown as a ratio when the number of cells in the GCV-free group was 100%. Further, the efficacy was evaluated by comparing the cytotoxicity due to GCV addition in the SF3B1 normal cell with the cytotoxicity of the SF3B1 K700E mutant cell. […]

## suicide gene containing the BRD9 intron: SFFV promoter, HSV-TK inserted with an intron of BRD9 containing no normal acceptor sequence, puromycin resistance gene linked by P2A
  viability (ratio when the number of cells in the GCV-free group was 100%): viability lower than that of the SF3B1 normal cell
